Reference: patent publication US20090087916A1, “Assay method for identifying drug candidate” (AnGesMG, Inc., priority 2004, published 2009)

Columns and labels:
Aβ (1-42) fibril = Aβ (1-42) fibril (Homo sapiens, UniProt P05067); test: in vitro sink-like Aβ assay: Aβ dissolved from fibril in presence of compound, Aβ ELISA of supernatant; type: biochemical; conditions: Aβ (1-42) fibril pellets, PBS containing compound, 37° C. for one day, supernatant by Aβ ELISA; control (PBS without compound) = 1
Aβ (1-42) fibril, sequence (P05067 672-713): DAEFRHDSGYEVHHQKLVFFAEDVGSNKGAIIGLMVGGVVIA
Experimental: Sandwich ELISA for Aβ (1-40) and Aβ (1-42) was performed using an Aβ (1-40) ELISA kit and Aβ (1-42) ELISA kit (Biosoure, IBL, Signet Laboratories and the like). […] The peptide was incubated for several days at 37° C. until fibrillization was completed. After centrifugation at 22° C. (15,000×g, 10 min), the supernatant was removed. The obtained pellets were gradually and carefully washed 3 times with PBS. Fresh PBS (20 μl) was carefully and gradually added to the pellets. The sample was incubated at 37° C. for one day. After centrifugation (15,000×g, 10 min) at 22° C., the supernatant was removed. […] The sample was incubated at 37° C. for one day.

tau = conditions: Taniguchi et al., J Biol Chem 2005; cited from earlier work
Aβ = conditions: in vitro; Ono, Biochim Biophys Acta 2004; cited from earlier work
[1] = test system: protease-resistant protein (PrP-res); conditions: cited from earlier work

Row | Molecule | average (ratio of Aβ dissolved from fibril when the control is 1) (Aβ (1-42) fibril) | inhibition of tau filament formation (tau) | inhibitory action on the formation or elongation of Aβ (Aβ) | inhibition of formation of protease-resistant protein (PrP-res) [1]
1 | CNc1ccc2nc3ccc(=[N+](C)C)cc-3sc2c1.[Cl-] [azure B] | 2.1701 | inhibit tau filament formation | – | –
2 | CCN(CCO)c1ccc(/N=N/c2sc3cc(OC)ccc3[n+]2C)cc1 [basic blue 41] | 2.299 | – | – | –
3 | COc1cc(/C=C/C(=O)CC(=O)/C=C/c2ccc(O)c(OC)c2)ccc1O [curcumin] | 2.4691 | – | – | –
4 | O=c1c(O)c(-c2cc(O)c(O)c(O)c2)oc2cc(O)cc(O)c12 [myricetin] | 1.3196 | – | in vitro inhibitory action on the formation or elongation of Aβ | –
5 | O=C(OC[C@H]1O[C@@H](OC(=O)c2cc(O)c(O)c(OC(=O)c3cc(O)c(O)c(O)c3)c2)[C@H](OC(=O)c2cc(O)c(O)c(OC(=O)c3cc(O)c(O)c(O)c3)c2)[C@@H](OC(=O)c2cc(O)c(O)c(OC(=O)c3cc(O)c(O)c(O)c3)c2)[C@@H]1OC(=O)c1cc(O)c(O)c(OC(=O)c2cc(O)c(O)c(O)c2)c1)c1cc(O)c(O)c(OC(=O)c2cc(O)c(O)c(O)c2)c1 [tannic acid] | 1.3969 | – | in vitro inhibitory action on the formation or elongation of Aβ | –
6 | ferric dehydroporphyrin IX | 1.4124 | inhibits tau filament formation | – | inhibit in vitro the formation of a protease-resistant protein (PrP-res)
